Measured values published in ChEMBL document CHEMBL1201862, “PubChem BioAssay data set” (2004).
Active and inactive are the calls of the source.

Experiments:
Large T antigen = Large T antigen (Simian virus 40, UniProt P03070); assay type: functional, Betapolyomavirus macacae;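 note: Confirmatory-stage PubChem screen for compounds that inhibit SV40 T antigen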
[1] = molecular target: T1, Rac GTPase-activating protein 1 (Homo sapiens, UniProt Q9H0H5); assay: MgcRacGAP GTPase-activating activity inhibitors, confirmation, biochemical, ADP Hunter fluorescence, primary and confirmatory (AID 624330); assay type: functional
T1 sequence (Q9H0H5 whole entry): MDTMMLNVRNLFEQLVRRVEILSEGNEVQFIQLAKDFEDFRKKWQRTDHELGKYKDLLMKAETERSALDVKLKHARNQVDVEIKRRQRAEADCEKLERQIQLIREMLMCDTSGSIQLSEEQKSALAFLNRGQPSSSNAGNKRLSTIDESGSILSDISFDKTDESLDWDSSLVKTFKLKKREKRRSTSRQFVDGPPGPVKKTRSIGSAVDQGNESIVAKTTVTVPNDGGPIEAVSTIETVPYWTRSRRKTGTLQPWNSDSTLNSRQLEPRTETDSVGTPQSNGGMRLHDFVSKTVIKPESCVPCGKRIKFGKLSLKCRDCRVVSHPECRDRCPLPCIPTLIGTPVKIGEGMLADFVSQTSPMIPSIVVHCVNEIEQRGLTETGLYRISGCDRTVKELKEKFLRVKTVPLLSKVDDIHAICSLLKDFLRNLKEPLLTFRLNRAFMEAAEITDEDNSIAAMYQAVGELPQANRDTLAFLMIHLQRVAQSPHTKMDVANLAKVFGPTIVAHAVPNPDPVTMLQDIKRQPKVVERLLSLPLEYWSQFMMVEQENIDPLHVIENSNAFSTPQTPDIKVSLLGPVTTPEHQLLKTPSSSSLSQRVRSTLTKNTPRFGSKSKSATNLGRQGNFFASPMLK

[2] = molecular target: T2, Ubiquitin-conjugating enzyme E2 N (Homo sapiens, UniProt P61088); assay type: functional;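 note: Dose-response confirmation in a TR-FRET assay detecting UBC13-driven polyubiquitin chain formation, inhibition measured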
T2 sequence (P61088 whole entry): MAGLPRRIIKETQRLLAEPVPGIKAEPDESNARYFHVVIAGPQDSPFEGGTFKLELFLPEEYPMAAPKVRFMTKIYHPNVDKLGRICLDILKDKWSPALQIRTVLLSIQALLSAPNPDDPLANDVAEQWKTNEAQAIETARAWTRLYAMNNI

H9c2 = assay: cells; assay type: functional, cell-based; conditions: Rattus norvegicus, H9c2, Myocardium;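 note: confirmatory concentration-response retest of ultra-high-throughput screening hits for modulation of myocardial damage; cell death induced by hydrogen peroxide oxidative stress; compound pretreatment for 60 min then peroxide exposure for 2 h; potency is for protecting the cells against peroxide damage rather than for killing them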
[3] = Shn3 3'UTR reporter inhibitors, dose response, cell-based, Clone20 osteoblasts, firefly luciferase, cherry-picked (AID 624132); assay type: functional;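 note: firefly luciferase luminescence from reporter carrying the Shn3 3'UTR in osteoblasts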
[4] = HepG2 cell cytotoxicity, dose response, cytotoxicity control for Shn3 inhibitor project, CellTiter-Glo, cherry-picked (AID 624134); assay type: functional, cell-based
[5] = control 3'UTR Renilla luciferase suppression, dose response, counter-screen for Shn3 inhibitor project, cell-based, Clone20-Shn3RL, cherry-picked (AID 624133); assay type: functional
[6] = microbe, parasite or virus in culture; assay type: functional; conditions: Mycobacterium tuberculosis
[7] = P. falciparum Dd2 growth inhibitors, dose response, SYBR Green, cherry-picked samples (AID 1159567); assay type: functional, cell-based
[8] = cytotoxicity in OVCAR8 ovarian cancer cells, dose response, PAX8 project, cell-based, plate reader, dry powder samples (AID 743197); assay type: functional; conditions: OVCAR-8
Paired box protein Pax-8 = Paired box protein Pax-8 (Homo sapiens, UniProt Q06710); assay: inhibitors of PAX8-driven TPO luciferase reporter, dose response, RMG-I cells, cherry-pick (AID 687027); assay type: functional, cell-based;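 note: luciferase reporter driven by Pax8 target thyroperoxidase promoter measured by SteadyGlo luminescence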
Chain of Paired box protein Pax-8 (Q06710 whole entry): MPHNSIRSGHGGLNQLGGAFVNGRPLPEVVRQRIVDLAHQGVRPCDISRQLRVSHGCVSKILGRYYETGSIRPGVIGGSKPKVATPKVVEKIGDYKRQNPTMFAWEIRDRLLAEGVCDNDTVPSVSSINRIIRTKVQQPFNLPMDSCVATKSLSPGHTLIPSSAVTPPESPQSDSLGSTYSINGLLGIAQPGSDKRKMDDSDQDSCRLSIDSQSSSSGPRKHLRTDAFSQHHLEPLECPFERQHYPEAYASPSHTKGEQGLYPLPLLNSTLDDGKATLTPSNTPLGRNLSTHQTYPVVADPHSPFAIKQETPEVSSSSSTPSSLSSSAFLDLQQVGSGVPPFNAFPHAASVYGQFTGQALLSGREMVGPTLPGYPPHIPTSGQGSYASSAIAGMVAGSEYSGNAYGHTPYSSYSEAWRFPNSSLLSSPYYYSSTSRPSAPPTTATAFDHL

[9] = inhibitors of intracellular T. cruzi replication, confirmation, NIH3T3 host cells, beta-gal luminescence (AID 2044); assay type: functional, cell-based;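 note: intracellular parasites grown in NIH/3T3 mouse fibroblasts as host cells; luminescent beta-galactosidase reporter signal from transgenic T. cruzi replicating inside host cells; inhibitors lower the luminescence signal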
[10] = cytotoxicity toward NIH3T3 fibroblasts, dose response, counter-screen, cell-based, ATP luminescence, mouse fibroblasts (AID 2010); assay type: functional;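 note: cells exposed to compound for about 90 hours before reading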
[11] = Luminescence Cell-Based Dose Confirmation HTS to Identify Activators of 5'UTR Stem-Loop Driven Alpha-Synuclein mRNA Translation in H4 Neuroglioblastoma Cells. [Related pubchem assays: 1829 (Project Summary), 1814 (Primary HTS)]; assay type: functional
H4 = assay: Luminescence Cell-Based Dose Response HTS to Identify Activators of 5'UTR Stem-Loop Driven Prion Protein mRNA Translation in H4 Neuroglioblastoma Cells. [Related pubchem assays: 1829 (Project Summary), 1814 (Primary HTS)]; assay type: functional; conditions: Homo sapiens
[12] = Luminescence Cell-Based Dose Response HTS to Identify Activators of Luciferase Translation or Activity in H4 […] Cells. [Related pubchem assays: 1829 (Project Summary), 1814 (Primary HTS)]; assay type: functional
[13] = molecular target: T3, Heat shock factor protein 1 (Mus musculus, UniProt P38532); assay: inhibition of MG132-induced HSE-luciferase signal, confirmation, cell-based, NIH3T3, luminescence, dose retest (AID 2382); assay type: functional;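 note: NIH3T3 fibroblasts with HSF1-driven luciferase reporter stressed by proteasome inhibitor MG132; luminescence from HSF1-driven luciferase expression after 8 hours of MG132 stress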
T3 sequence (P38532 whole entry): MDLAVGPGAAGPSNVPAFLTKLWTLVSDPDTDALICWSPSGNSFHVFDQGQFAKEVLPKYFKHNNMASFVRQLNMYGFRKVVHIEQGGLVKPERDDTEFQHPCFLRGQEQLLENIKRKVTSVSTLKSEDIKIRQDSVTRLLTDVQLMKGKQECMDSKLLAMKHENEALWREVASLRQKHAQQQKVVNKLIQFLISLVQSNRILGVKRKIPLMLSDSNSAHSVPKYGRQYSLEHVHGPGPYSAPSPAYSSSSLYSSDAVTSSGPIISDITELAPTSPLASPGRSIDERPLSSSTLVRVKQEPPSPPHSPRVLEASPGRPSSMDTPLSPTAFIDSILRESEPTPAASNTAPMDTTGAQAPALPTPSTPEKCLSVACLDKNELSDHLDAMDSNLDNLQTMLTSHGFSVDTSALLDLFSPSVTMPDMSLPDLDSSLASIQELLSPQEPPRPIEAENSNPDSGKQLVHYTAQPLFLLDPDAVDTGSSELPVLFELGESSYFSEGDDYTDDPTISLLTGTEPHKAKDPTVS

[14] = molecular target: T4, RNA-binding protein pos-1 (Caenorhabditis elegans, UniProt G5EF15); assay: inhibitors of POS-1/mex-3 RNA binding, dose response, biochemical, fluorescence polarization (AID 1964);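 note: purified POS-1 fused to maltose binding protein made in E. coli; potency of compounds blocking POS-1 binding to fluorescent RNA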
T4 sequence (G5EF15 whole entry): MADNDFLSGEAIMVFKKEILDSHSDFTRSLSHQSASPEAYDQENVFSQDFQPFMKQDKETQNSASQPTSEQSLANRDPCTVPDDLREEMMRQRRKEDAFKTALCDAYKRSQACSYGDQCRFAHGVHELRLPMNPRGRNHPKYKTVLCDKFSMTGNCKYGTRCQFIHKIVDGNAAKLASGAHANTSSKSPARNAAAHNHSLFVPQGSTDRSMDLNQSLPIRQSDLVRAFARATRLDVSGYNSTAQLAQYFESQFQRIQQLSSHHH

[15] = molecular target: T5, Zinc finger protein mex-5 (Caenorhabditis elegans, UniProt Q9XUB2); assay: MEX-5/TCR-2 RNA interaction inhibitors, dose response, biochemical, C. elegans, fluorescence polarization (AID 1960)
T5 sequence (Q9XUB2 whole entry): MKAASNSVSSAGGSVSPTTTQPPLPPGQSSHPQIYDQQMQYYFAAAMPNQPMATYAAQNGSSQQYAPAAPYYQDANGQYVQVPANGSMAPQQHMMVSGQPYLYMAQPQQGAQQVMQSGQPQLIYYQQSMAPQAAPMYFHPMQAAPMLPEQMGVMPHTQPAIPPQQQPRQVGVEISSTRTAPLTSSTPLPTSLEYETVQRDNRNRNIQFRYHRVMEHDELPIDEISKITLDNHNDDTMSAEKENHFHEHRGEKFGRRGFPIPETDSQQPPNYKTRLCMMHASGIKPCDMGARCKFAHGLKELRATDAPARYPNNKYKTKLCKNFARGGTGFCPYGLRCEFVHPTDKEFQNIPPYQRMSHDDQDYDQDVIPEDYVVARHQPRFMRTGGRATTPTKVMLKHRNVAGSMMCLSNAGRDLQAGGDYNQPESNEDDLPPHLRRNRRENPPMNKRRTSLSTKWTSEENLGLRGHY

[16] = Luminescence Cell-Based Dose Retest to Confirm Inhibitors of Cancer Stem Cells. [Related pubchem assays (depositor defined):AID2717, AID2721]; assay type: functional; conditions: Homo sapiens

Chain of Large T antigen (P03070 whole entry): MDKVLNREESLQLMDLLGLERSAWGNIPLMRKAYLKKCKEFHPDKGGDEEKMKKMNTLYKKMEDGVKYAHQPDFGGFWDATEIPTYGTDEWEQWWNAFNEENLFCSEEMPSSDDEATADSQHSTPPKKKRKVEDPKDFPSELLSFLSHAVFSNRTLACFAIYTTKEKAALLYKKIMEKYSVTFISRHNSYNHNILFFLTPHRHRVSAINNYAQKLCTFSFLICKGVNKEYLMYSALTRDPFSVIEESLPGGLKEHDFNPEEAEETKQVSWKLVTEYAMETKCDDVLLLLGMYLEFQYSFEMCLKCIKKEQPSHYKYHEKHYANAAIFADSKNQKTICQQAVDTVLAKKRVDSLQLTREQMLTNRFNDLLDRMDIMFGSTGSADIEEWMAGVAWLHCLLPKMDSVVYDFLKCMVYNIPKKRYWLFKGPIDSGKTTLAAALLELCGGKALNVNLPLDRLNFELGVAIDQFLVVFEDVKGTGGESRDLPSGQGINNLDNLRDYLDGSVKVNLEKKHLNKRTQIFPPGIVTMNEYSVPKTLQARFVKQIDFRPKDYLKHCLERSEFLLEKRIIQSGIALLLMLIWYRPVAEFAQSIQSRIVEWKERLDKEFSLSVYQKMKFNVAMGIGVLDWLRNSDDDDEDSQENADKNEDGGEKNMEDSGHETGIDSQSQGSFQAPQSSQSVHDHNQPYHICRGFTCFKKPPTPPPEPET

Cc1c(N=C2NC(=O)/C(=C/c3ccc(O)cc3)S2)c(=O)n(-c2ccccc2)n1C
IC50 (Large T antigen): 33.1 µM (active) | IC50 [1]: 60.7 µM (active)

CCC(=O)NC(c1cc(Cl)c2ccccc2c1O)C1CC1 (stereo not given)
IC50 [2]: > 20 µM (inactive)

COc1cc(-c2cc(NC=O)c3ncc(-c4ccc(C(C)=O)cc4)n3c2)ccc1O
IC50 (H9c2): > 79 µM (inactive)

CN(c1ccccc1)S(=O)(=O)c1cccc(NC(=O)c2ccc3ncsc3c2)c1
AC50 [3]: 17.2 µM (active) | AC50 [4]: 53.8 µM (active) | AC50 [5]: 13.3 µM (active)

C=C1CC(C(=O)N/N=C/c2ccc(O)cc2)C1
IC50 (Large T antigen): 9.17 µM (active) | IC50 [1]: 42.6 µM (active)

CCOC(=O)c1cc(C)nc(Sc2ccc(C)cc2)c1C#N
CC50 [6]: > 40 µM (active)

N#Cc1c(-c2cccs2)cc(-c2cccnc2)nc1N
IC50 (H9c2): > 79 µM (inactive)

O=C(C1CC1)N1CC(=O)N2[C@H](CO)[C@@H](c3ccc(C#CCc4ccccc4)cc3)[C@@H]2C1
AC50 [7]: 5.44 µM (active)

COc1ccc(-c2cc(NC=O)c3ncc(-c4cccc(C(C)=O)c4)n3c2)cc1
IC50 (H9c2): > 79 µM (inactive)

C[C@@H]1CCCCO[C@@H](CN(C)Cc2ccccc2)[C@@H](C)CN([C@@H](C)CO)C(=O)c2cc(NS(=O)(=O)c3ccc(Cl)cc3)ccc2O1
AC50 [8]: 63.2 µM (active) | AC50 (Paired box protein Pax-8): 5.43 µM (active)

COc1cccc(-c2cnc3c(NC(C)=O)cc(-c4cccc(NS(C)(=O)=O)c4)cn23)c1
IC50 (H9c2): > 79 µM (inactive)

COc1ccc(Nc2cc(Nc3cc(OC)c(OC)c(OC)c3)ncn2)cc1
IC50 [2]: > 20 µM (inactive)

C=C1CC2(CC(c3ccccc3)OC(c3ccccc3)C2)OC1=O (stereo not given)
AC50 [3]: 2.49 µM (active) | AC50 [4]: 38.4 µM (active) | AC50 [5]: 7.45 µM (active)

Nc1c(N(CCC2=CCCCC2)C(=O)c2ccc([N+](=O)[O-])o2)c(=O)[nH]c(=O)n1Cc1ccccc1
EC50 [9]: 0.345 µM (active) | EC50 [10]: > 60 µM (not active) | CC50 [6]: > 40 µM (active)

C[C@H](CO)N1C[C@H](C)[C@H](CN(C)C(=O)Nc2ccc(F)cc2)Oc2cc(/C=C/c3ccccc3)ccc2S1(=O)=O
AC50 [7]: 5.46 µM (active)

Cc1ccc2c(c1)c(/N=N/C(=N)S)c(O)n2Cc1ccccc1
IC50 [2]: > 20 µM (inactive)

O=C(C[C@H]1C[C@@H]2c3cc(NC(=O)Nc4ccc(C(F)(F)F)cc4)ccc3O[C@@H]2[C@@H](CO)O1)NCCc1ccccc1
AC50 [8]: 60.1 µM (active) | AC50 (Paired box protein Pax-8): 2.07 µM (active)

CC1(C)Cc2c(C#N)c(SCc3nc4ccccc4[nH]3)nc(N3CCOCC3)c2CO1
IC50 (H9c2): 45.5 µM (inactive)

COc1ccc(C(C(O)C(=O)c2c[nH]c3ccccc23)N2CCN(c3ccc(OC)cc3)CC2)cc1 (stereo not given)
CC50 [6]: > 40 µM (active)

O=C(c1ccc(F)cc1)N1CC(=O)N2[C@H](CO)[C@@H](c3ccc(/C=C/c4ccccc4)cc3)[C@@H]2C1
AC50 [7]: 3.9 µM (active)

Cc1nc2ccccn2c1C(=O)NC1CCCc2ccccc21 (stereo not given)
AC50 [3]: 2.47 µM (active) | AC50 [4]: 46.8 µM (active) | AC50 [5]: 4.51 µM (active)

CCN(CCCNC(=O)c1cc2c(-c3cccc(OC)c3)nn(C)c2s1)Cc1ccccc1
IC50 [2]: > 20 µM (inactive)

COc1ccc(N2CCN(C(=O)CN(c3ccccc3)S(C)(=O)=O)CC2)cc1
IC50 (Large T antigen): > 100 µM (active)

C/C(=N\Nc1nnc2c3ccccc3n(C)c2n1)c1ccc(C)o1
EC50 [11]: 17.5 µM (active) | EC50 (H4): > 120 µM (not active) | EC50 [12]: 71.3 µM (active) | IC50 (H9c2): > 79 µM (inactive)

Brc1ccc(C2=CC(c3ccco3)n3ncnc3N2)cc1 (stereo not given)
EC50 [13]: > 195 µM (not active) | EC50 [14]: > 300 µM (inconclusive) | EC50 [15]: 18.1 µM (active)

CN(C)c1ccc(N/C=C/C(=O)C(F)(F)F)cc1
IC50 (Large T antigen): 9.98 µM (active)

O=C(COC(=O)Cc1nnc(O)c2ccccc12)Nc1ccc(Cl)cc1F
IC50 (H9c2): > 79 µM (inactive)

COc1ccc2c3c(n(C)c2c1)[C@H](CO)N(C(=O)Nc1ccc(F)cc1)CC31CCN(C(=O)c2cccnc2)CC1
AC50 [7]: 4.52 µM (active)

COc1ccc(-c2ccc3[nH]c4c(c3c2)CCN2C[C@H]3[C@H](C)ON(C)[C@H]3C[C@@H]42)cc1
IC50 (H9c2): > 79 µM (inactive)

C[C@H](CO)N1C[C@H](C)[C@H](CN(C)C(=O)c2ccccc2)OCCCC[C@H](C)Oc2ccc(NC(=O)Nc3ccc(C(F)(F)F)cc3)cc2C1=O
AC50 [8]: > 70 µM (inactive) | AC50 (Paired box protein Pax-8): 5.26 µM (active)

COc1cc(CN2CC3(CN(C(=O)CN4CCOCC4)C3)c3c(n(C)c4cc(OC)ccc34)[C@@H]2CO)cc(OC)c1
AC50 [7]: 6.16 µM (active)

CCOC(=O)c1ccc(NC(=O)c2[nH]cnc2C(=O)NCCNC(=O)c2nc[nH]c2C(=O)Nc2ccc(C(=O)OCC)cc2)cc1
AC50 [3]: 5.51 µM (active) | AC50 [4]: 9.03 µM (active) | AC50 [16]: 0.65 µM (active)

CC(C)NC(=O)C1CCN(C(=O)c2cc3sccc3n2Cc2ccc(F)cc2)CC1
AC50 [3]: 5.05 µM (active) | AC50 [4]: 36.6 µM (active) | AC50 [5]: 8.2 µM (active)
